“And” between values parts separate entries of the source, which are not always exact repeats. Equal values may be shown once.
Experiments:
CRE E. coli = test: PNA growth assay (optical density) on clinical isolate; type: cell-based, Escherichia coli; details: for growth inhibition: 10 μM PNA, optical density vs no treatment at 16 hours
Procedure: (§1) Bacterial Cell culture: The clinical isolates were obtained from the lab of Nancy Madinger at the University of Colorado Anschutz campus. Clinical isolates were grown in Cation Adjusted Mueller Hinton broth (CAMHB) (Becton, Dickinson and Company 212322) at 37° C. with 225 rpm shaking or on solid CAMHB with 1.5% agar at 37° C. Clinical isolates were maintained as freezer stocks in 90% CAMHB, 10% glycerol at −80° C. Freezer stocks were streaked out onto solid CAMHB and incubated for 16 h to produce single colonies prior to experiments. For each biological replicate, a single colony was picked from solid media and grown for 16 h in liquid CAMHB prior to experiments. Non-clinical isolates, such as E. coli MG1655 (ATCC700926) and Salmonella entorica serovar typhimurium SL1344, were cultured in liquid 2% lysogeny broth (LB) or on 2% LB with 1.5% agar for solid plates. S. typhimurium cultures were supplemented with 30 μg/mL streptomycin and SL1344 strains containing plasmids pFPV (SL1344-mCherry) or pRG1 modified with a lacIq promoter (SL1344-Holin) were supplemented with 100 μg/mL ampicillin. Freezer stocks were stored in 60% LB broth, 40% glycerol at −80° C. Freezer stocks were streaked out onto solid LB and incubated for 16 h to produce single colonies before experiments. For biological replicates, single colonies were started in liquid LB and grown for 16 hours prior to experiments. E. coli MG1655 PNA growth experiments were carried out in M9 media (1×M9 minimal media salts solution (MP Biomedicals), 2.0 mM MgSO4, and 0.1 mM CaCl2 in sterile water) with 0.4% glucose.
(§2) PNA growth assay: Biological replicates were diluted 1:10,000 into treatment condition in 384-well plates and measured for 24 h in a Tecan GENios at 562 nm with a bandwidth of 35 nm. Media absorbance blanks were subtracted from data prior to analysis. Normalized optical density (OD) data is shown normalized to the time point where the “no treatment” growth curves reached saturation phase which varied across biological replicates.

ESBL KPN = test: as above; type: cell-based, Klebsiella pneumoniae
Procedure: as §1, §2

HeLa cells = test: Cytotoxicity in HeLa cells (lactate dehydrogenase assay); type: cell-based, human; details: for lethality to human epithelial cells (in words): HeLa, range of concentrations
Procedure: FIG. 12. Cytotoxicity measurement of varying concentration of PNA in HeLa cells. HeLa cells were plated on tissue culture treated 96-well plates at 4,500 cells per well. Varying concentrations of α-lexA and α-nonsense were added exogenously after 24 hours of growth and incubated in growth conditions for 18 hours. Cytotoxicity was measured using a lactate dehydrogenase assay and absorbance read at 450 nm with a blank (growth media with lactate dehydrogenase assay) subtracted. […] Error bars are standard deviation.

MDR STm = test: PNA growth assay (optical density) on clinical isolate; type: cell-based, Salmonella enterica serovar typhimurium; details: for growth inhibition: MDR STm, 10 μM PNA, optical density vs no treatment at 16 hours; for monotherapy effect (in words): clinical isolate of Salmonella
Procedure: as §1, §2

[1] = system: intracellular SL1344 S. typhimurium in HeLa cells; test: Salmonella infection of HeLa cells and PNA treatment (T3SS-PNA or naked PNA); type: cell-based, Salmonella enterica serovar typhimurium; details: for reduction of intra-epithelial Salmonella CFU: PNA delivered via the T3SS, vs no treatment, p<0.05; for reduction of intra-epithelial Salmonella CFU / clearing of infection (in words): 10 μM, 18 hours; for GFP expressing Salmonella in images (in words): T3SS-PNA treatment, compared to no treatment or Naked-PNA treatment; for clearing of infection (in words): naked PNA added exogenously after infection, compared to no treatment
Procedure: FIG. 4. Establishing the bacterial Type III secretion system (T3SS) for PNA transport. (A) Schematic showing enhancement of PNA delivery into HeLa cells using the bacterial T3SS of Salmonella enterica serovar typhimurium (STm) for treatment of an intracellular infection of STm. HeLa cells were seeded and allowed to grow for 24 h. SL1344 GFP STm was added at a MOI of 10:1 and allowed to infect HeLa cells for 45 min following two separate conditions: (Top) No PNA is added during this time, termed here as Naked PNA treatment, (Bottom) PNA is added at the time of infection at t=0 to utilize the T3SS, termed here as T3SS-PNA treatment. The T3SS-PNAs enter Salmonella during 45 minutes of incubation due to transport enhanced by the cell penetrating peptides, followed by entry into host cells via T3SS encoding and PNA carrying STm. (Top and Bottom). After 45 minutes infected HeLa cells are washed and treated with media containing gentamicin for 75 minutes to kill extracellular bacteria. The cells are then incubated for 18 h with media containing gentamicin following the two separate conditions: (Top) PNA supplied after infection for Naked PNA treatment. (Bottom) No PNA is added after infection. Post 18 hours of treatment HeLa cells are fixed for imaging or lysed for Colony forming Unit (CFU) analysis. (B) Representative images of uninfected (Top left), and infected HeLa cells without treatment (Bottom left). Top (right) panels show representative images of infected HeLa cells following Naked-PNA treatment. Bottom (right) panels show representative images of infected HeLa cells following T3SS-PNA treatment. HeLa cells are stained with nucleic stain DAPI (blue), and membrane stain Phalloidin (pink), and green pixels represent intracellular SL1344 S. typhimurium fluorescing GFP (green). […] (C) Intracellular S. typhimurium load (CFU/mL) in presence or absence of treatment. Significant reduction in STm CFU in HeLa cells when PNA is delivered using T3SS.
For all cases, HeLa cells were infected at time t=0 with SL1344 for 45 minutes with a multiplicity of infection (MOI) of bacteria to HeLa cells of approximately 10:1. For the T3SS-PNA treatment method HeLa cells were co-incubated with SL1344 and either α-rpsD or α-lexA for 45 minutes, allowing the PNA to enter the Salmonella while simultaneously transporting the PNA-carrying Salmonella into the HeLa cells using the T3SS. […] Post-infection, the cells were washed and incubated with media containing gentamicin for a period of 75 minutes to remove any extracellular bacteria and/or PNA. For all treatments the media was then replaced with fresh gentamicin containing growth medium, with the naked PNA treatment condition also containing 10 μM PNA, and incubated an additional 18 (FIG. 4A). At the end of 18 hours, cultures were analyzed via imaging or measured by intra-epithelial colony forming units (CFU). […] The present inventors obtained similar results in an infection of mouse osteoblast cells (FIG. 11B).
Salmonella infection of HeLa cells and PNA treatment: For a single infection (FIG. 4), SL1344 cultures were inoculated from a single colony on solid media in to 1 mL of LB media and grown for 16 hours at 37° C. with shaking. Cultures were diluted 1:10 and regrown in LB prior to infection. Bacteria were washed thrice with PBS, optical density at 600 nm measured, and diluted to a multiplicity of infection (MOI) of 10 in Dulbecco PBS (DPBS). MOI is calculated based on an established optical density and colony forming unit (CFU) calibration, and the number of mammalian cells per well at the time of infection approximated based on their doubling time. Mammalian cells were washed thrice with Dulbecco's Phosphate-Buffered Saline (DPBS, Fisher Scientific) prior to infection for 45 minutes 37° C. with controlled humidity. […]

Row | Substance | growth inhibition (CRE E. coli) | monotherapy effect (in words) (ESBL KPN; 10 μM) | concentration up to which no significant difference in cytotoxicity to negative control was seen (HeLa cells; HeLa cells, 18 hours, lactate dehydrogenase assay, p>0.05) | lethality to human epithelial cells (in words) (HeLa cells) | growth inhibition (MDR STm) | monotherapy effect (in words) (MDR STm) | reduction of intra-epithelial Salmonella CFU [1] | GFP expressing Salmonella in images (in words) [1] | clearing of infection (in words) [1] | monotherapy effect (in words) (CRE E. coli; 10 μM) | growth inhibition (ESBL KPN; 10 μM PNA, optical density vs no treatment at 16 hours)
1 | α-lexA: 12-mer antisense PNA cGGAATGAAAGC (SEQ ID NO. 17) targeting lexA, conjugated to (KFF)3K cell penetrating peptide via AEEA-linker (antisense CGGAATGAAAGC; all peptide nucleic acid (PNA); (KFF)3K cell-penetrating peptide attached via AEEA linker) | 51±8.1% | no or minimal growth inhibition | up to 40 μM | not found to be lethal | 62±5.4% | effective against the clinical isolate of Salmonella | ~69±8% | evident decrease in GFP expressing Salmonella | not effective in clearing an infection |  | 
2 | α-rpsD: 12-mer antisense PNA AGAAAATGGCAA (SEQ ID NO. 19) targeting rpsD, conjugated to (KFF)3K cell penetrating peptide via AEEA-linker (all peptide nucleic acid (PNA); (KFF)3K cell-penetrating peptide attached via AEEA linker) | 99±0.4% and 99% |  |  | not found to be lethal | 99±0.1% and 99% | effective against the clinical isolate of Salmonella | ~82±13% | evident decrease in GFP expressing Salmonella | not effective in clearing an infection | effective in killing | 82%±8.8

Source: patent publication US20210087565A1, “ANTISENSE ANTIBIOTICS AND BACTERIAL SECRETION BASED DELIVERY SYSTEM TO ELIMINATE DRUG-RESISTANT BACTERIA” (priority 2018, published 2021)
